Assay results from patent US12649907B2, “Alternate detergents for viral inactivation” (AMGEN INC., priority 2019, dated 2026).
Where “and” joins values, the source holds several entries; their conditions need not be identical. Equal entries are not always repeated.

What was measured:
xMuLV [1] = experiment: Kinetic study of detergents, TCID50 LRV in host cell culture fluid matrices; type: cell-based, xenotropic murine leukemia virus; details: for Clearance of xMuLV within 30 minutes: 15° C.
MMV = experiment: Concentration study, lowest concentration to inactivate virus; type: cell-based, mouse minute virus
xMuLV [2] = experiment: as above; type: cell-based, xenotropic murine leukemia virus; details: 15° C., 30-minute incubation
PRV = type: cell-based, pseudorabies herpes virus
xMuLV [3] = experiment: Temperature-dependent study, TCID50 LRV in host cell culture fluid matrices; type: cell-based, xenotropic murine leukemia virus; details: for Viral inactivation in the presence of therapeutic modalities: between 30 seconds and 30 minutes, temperatures as low as 5° C. and 15° C.; for Inactivation at 30 minutes at both 5° C. and 15° C.: mAb, BiTE ®, fusion protein matrices; for Inactivation towards xMuLV at any temperature tested: in product matrices; for average LRV: process temperature of 15° C., average over modalities
[4] = as indicated by the Hampton Kit; cited from earlier work
[5] = Turbidity of detergent spiked HCCF; type: physicochemical; details: HCCF spiked at five times CMC, room temperature 5 days and 2-8° C. 7 days
Method: Determination of turbidity was used to measure the stability of detergent spiked samples. Increased turbidity of the sample would reflect a precipitation of the protein molecule. 100 mL of harvested cell culture fluid (HCCF) collected from cultures of each molecule were subjected to four conditions: HCCF containing no detergent (control), APO128, APO129 and Triton X-100. The detergents were spiked at five times the detergent's critical micelle concentration (CMC) values, Triton-X: […] Two sample sets were generated for each molecule; one set was kept at room temperature for 5 days. The second set was kept at 2-8° C. for 7 days. The turbidity of each sample was measured using a turbidimeter (Hach Turbidime[…] 46500-00, Loveland, CO) on days 0, 1, 2, 5, and 7.

xMuLV [6] = type: cell-based, xenotropic murine leukemia virus; details: initial screen, 10× CMC or 10% w/v, 30 minutes, 15° C., 5% virus spike, PG4 cells

CCCCCCCS[C@@H]1O[C@H](CO)[C@@H](O)[C@H](O)[C@H]1O [N-heptyl-β-D-thioglucopyranoside, Heptyl-β-D-1-thioglucopyranoside]
LRV 30 s (xMuLV [1]; BiTE ® #1, 15° C.): ≥3.03 ± 0.18
LRV 10 min (xMuLV [1]; BiTE ® #1, 15° C.): ≥3.03 ± 0.18
LRV 30 min (xMuLV [1]; BiTE ® #1, 15° C.): ≥3.03 ± 0.18
LRV 30 s (xMuLV [1]; fusion protein #1, 15° C.): ≥3.16 ± 0.42
LRV 10 min (xMuLV [1]; fusion protein #1, 15° C.): ≥3.16 ± 0.42
LRV 30 min (xMuLV [1]; fusion protein #1, 15° C.): ≥3.16 ± 0.42
LRV 30 s (xMuLV [1]; mAb #1, 15° C.): ≥3.22 ± 0.41
LRV 10 min (xMuLV [1]; mAb #1, 15° C.): ≥3.22 ± 0.41
LRV 30 min (xMuLV [1]; mAb #1, 15° C.): ≥3.22 ± 0.41
Cytopathic effects (CPE) at 2.5×CMC (MMV): showed cytopathic effects (CPE)
Cytopathic effects (CPE) at 2.5×CMC (xMuLV [2]): showed cytopathic effects (CPE)
Cytopathic effects (CPE) at 2.5×CMC (PRV): showed cytopathic effects (CPE)
LRV BiTE ® (xMuLV [3]; 5° C., 30 minutes, 5× CMC): ≥4.23 ± 0.33
LRV fusion protein (xMuLV [3]; 5° C., 30 minutes, 5× CMC): ≥4.07 ± 0.30
LRV mAb (xMuLV [3]; 5° C., 30 minutes, 5× CMC): ≥4.09 ± 0.25
LRV BiTE ® (xMuLV [3]; 15° C., 30 minutes, 5× CMC): ≥4.03 ± 0.18
LRV fusion protein (xMuLV [3]; 15° C., 30 minutes, 5× CMC): ≥4.16 ± 0.42
LRV mAb (xMuLV [3]; 15° C., 30 minutes, 5× CMC): ≥4.22 ± 0.41
Viral inactivation in the presence of therapeutic modalities (xMuLV [3]): complete viral inactivation
Inactivation at 30 minutes at both 5° C. and 15° C. (xMuLV [3]): complete inactivation
CMC [4]: 29 mM

OC[C@H]1O[C@H](O[C@H]2[C@H](O)[C@@H](O)[C@H](OCCCCCC3CCCCC3)O[C@@H]2CO)[C@H](O)[C@@H](O)[C@@H]1O [CYMAL ®-5, 5-cyclohexylpentyl-β-D-maltoside]
Clearance of xMuLV within 30 minutes (xMuLV [1]): did not lead to robust clearance
LRV 30 s (xMuLV [1]; BiTE ® #1, 15° C.): 0.19 ± 0.69
LRV 10 min (xMuLV [1]; BiTE ® #1, 15° C.): 0.06 ± 0.58
LRV 30 min (xMuLV [1]; BiTE ® #1, 15° C.): −0.06 ± 0.69
LRV 30 s (xMuLV [1]; fusion protein #1, 15° C.): −0.06 ± 0.69
LRV 10 min (xMuLV [1]; fusion protein #1, 15° C.): 0.31 ± 0.52
LRV 30 min (xMuLV [1]; fusion protein #1, 15° C.): 0.62 ± 0.48
LRV 30 s (xMuLV [1]; mAb #1, 15° C.): 0.25 ± 0.58
LRV 10 min (xMuLV [1]; mAb #1, 15° C.): 0.12 ± 0.58
LRV 30 min (xMuLV [1]; mAb #1, 15° C.): 0.62 ± 0.50
Cytopathic effects (CPE) at 2.5×CMC (MMV): showed cytopathic effects (CPE)
Cytopathic effects (CPE) at 2.5×CMC (xMuLV [2]): showed cytopathic effects (CPE)
Cytopathic effects (CPE) at 2.5×CMC (PRV): showed cytopathic effects (CPE)
LRV BiTE ® (xMuLV [3]; 15° C., 30 minutes, 5× CMC): −0.06 ± 0.69
LRV fusion protein (xMuLV [3]; 15° C., 30 minutes, 5× CMC): 0.62 ± 0.48
LRV mAb (xMuLV [3]; 15° C., 30 minutes, 5× CMC): 0.62 ± 0.50
increase in LRV at higher temperature (22° C.) (xMuLV [3]; 22° C. versus 15° C.): ~1 log
LRV BiTE ® (xMuLV [3]; 22° C., 30 minutes, 5× CMC): 1.19 ± 0.29
LRV fusion protein (xMuLV [3]; 22° C., 30 minutes, 5× CMC): 1.01 ± 0.45
LRV mAb (xMuLV [3]; 22° C., 30 minutes, 5× CMC): 1.94 ± 0.52
Inactivation towards xMuLV at any temperature tested (xMuLV [3]): did not yield significant inactivation
average LRV (xMuLV [3]): 0.39
CMC [4]: 5 mM

polyoxyethylene octyl phenol ether [Triton X-100, reference compound]
LRV fusion protein (xMuLV [3]; Triton X-100 control, 7° C., 800-sample large volume plate (1 LRV increase), Run 1 and Run 2): 5.03 ± 0.58 and 5.04 ± 0.57
Precipitation of protein modalities (turbidity) [5]: none of the detergents tested caused precipitation

CCCCCCCCCCOP(=O)([O-])OCC[N+](C)(C)C [Fos-Choline ®-10, n-decylphosphocholine]
Clearance of xMuLV within 30 minutes (xMuLV [1]): did not lead to robust clearance
LRV 30 s (xMuLV [1]; BiTE ® #1, 15° C.): 0.69 ± 0.44
LRV 10 min (xMuLV [1]; BiTE ® #1, 15° C.): 1.57 ± 0.47
LRV 30 min (xMuLV [1]; BiTE ® #1, 15° C.): 3.92 ± 0.67
LRV 30 s (xMuLV [1]; fusion protein #1, 15° C.): 0.82 ± 0.57
LRV 10 min (xMuLV [1]; fusion protein #1, 15° C.): 1.82 ± 0.51
LRV 30 min (xMuLV [1]; fusion protein #1, 15° C.): 3.51 ± 0.43
LRV 30 s (xMuLV [1]; mAb #1, 15° C.): 0.69 ± 0.31
LRV 10 min (xMuLV [1]; mAb #1, 15° C.): 1.61 ± 0.56
LRV 30 min (xMuLV [1]; mAb #1, 15° C.): 3.97 ± 0.90
Cytopathic effects (CPE) at 2.5×CMC (MMV): showed cytopathic effects (CPE)
Cytopathic effects (CPE) at 2.5×CMC (xMuLV [2]): showed cytopathic effects (CPE)
Cytopathic effects (CPE) at 2.5×CMC (PRV): showed cytopathic effects (CPE)
LRV BiTE ® (xMuLV [3]; 5° C., 30 minutes, 5× CMC): 2.09 ± 0.31
LRV fusion protein (xMuLV [3]; 5° C., 30 minutes, 5× CMC): 1.76 ± 0.41
LRV mAb (xMuLV [3]; 5° C., 30 minutes, 5× CMC): 2.54 ± 0.34
LRV BiTE ® (xMuLV [3]; 15° C., 30 minutes, 5× CMC): 3.92 ± 0.67
LRV fusion protein (xMuLV [3]; 15° C., 30 minutes, 5× CMC): 3.51 ± 0.43
LRV mAb (xMuLV [3]; 15° C., 30 minutes, 5× CMC): 3.97 ± 0.90
Inactivation towards xMuLV at any temperature tested (xMuLV [3]): did not yield significant inactivation
average LRV (xMuLV [3]): 3.8
CMC [4]: 11 mM

CCCCCCCCCCCCOCCOCCOCCOCCOCCOCCOCCOCCO [Anapoe C12E8, 3,6,9,12,15,18,21,24-oxtaoxahexatriacontan-1-ol]
LRV 30 s (xMuLV [1]; BiTE ® #1, 15° C.): ≥3.32 ± 0.35
LRV 10 min (xMuLV [1]; BiTE ® #1, 15° C.): ≥3.32 ± 0.35
LRV 30 min (xMuLV [1]; BiTE ® #1, 15° C.): ≥3.32 ± 0.35
LRV 30 s (xMuLV [1]; fusion protein #1, 15° C.): ≥3.99 ± 0.42
LRV 10 min (xMuLV [1]; fusion protein #1, 15° C.): ≥3.99 ± 0.42
LRV 30 min (xMuLV [1]; fusion protein #1, 15° C.): ≥3.99 ± 0.42
LRV 30 s (xMuLV [1]; mAb #1, 15° C.): ≥3.28 ± 0.34
LRV 10 min (xMuLV [1]; mAb #1, 15° C.): ≥3.28 ± 0.34
LRV 30 min (xMuLV [1]; mAb #1, 15° C.): ≥3.28 ± 0.34
Cytopathic effects (CPE) at 2.5×CMC (MMV): showed cytopathic effects (CPE)
Cytopathic effects (CPE) at 2.5×CMC (xMuLV [2]): showed cytopathic effects (CPE)
Viral inactivation towards xMuLV (CPE) (xMuLV [6]): robustly inactivate the virus
Cytopathic effects (CPE) at 2.5×CMC (PRV): showed cytopathic effects (CPE)
LRV BiTE ® (xMuLV [3]; 5° C., 30 minutes, 5× CMC): ≥4.03 ± 0.18
LRV fusion protein (xMuLV [3]; 5° C., 30 minutes, 5× CMC): ≥4.23 ± 0.33
LRV mAb (xMuLV [3]; 5° C., 30 minutes, 5× CMC): ≥4.41 ± 0.37
LRV BiTE ® (xMuLV [3]; 15° C., 30 minutes, 5× CMC): ≥4.32 ± 0.35
LRV fusion protein (xMuLV [3]; 15° C., 30 minutes, 5× CMC): ≥4.99 ± 0.42
LRV mAb (xMuLV [3]; 15° C., 30 minutes, 5× CMC): ≥3.28 ± 0.34
Viral inactivation in the presence of therapeutic modalities (xMuLV [3]): complete viral inactivation
Inactivation at 30 minutes at both 5° C. and 15° C. (xMuLV [3]): complete inactivation
Precipitation of protein modalities (turbidity) [5]: none of the detergents tested caused precipitation
CMC [4]: 0.11 mM
